Reference: patent publication US20160251403A1, “PEPTIDE COMBINATIONS AND USES THEREOF IN TREATING DUST MITE ALLERGY” (ALK-ABELLO A/S, priority 2013, published 2016)
pIC50: −log10 of the molar value. No end group written: not given here.

Target: T1, DPA10202-DPB10501 (Homo sapiens, UniProt P04440+P20036, A42M/A65V/A84E/F191V/F64L/G113D/G114E/K142R/L158P/M116V/M62Q/P115A/Q81R/R125K/T114A/T199I/T259P/V234M)
T1 sequence (P04440 30-258 A65V/A84E/F64L/G113D/G114E/M116V/P115A/R125K/T199I/V234M): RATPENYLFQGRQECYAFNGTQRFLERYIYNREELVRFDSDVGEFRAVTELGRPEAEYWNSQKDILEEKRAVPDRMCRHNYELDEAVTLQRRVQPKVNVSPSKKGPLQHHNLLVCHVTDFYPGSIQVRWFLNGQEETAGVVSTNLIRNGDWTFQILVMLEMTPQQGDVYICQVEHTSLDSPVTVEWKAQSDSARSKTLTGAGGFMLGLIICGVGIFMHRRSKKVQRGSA
T1 sequence (P20036 29-260 A42M/F191V/K142R/L158P/M62Q/Q81R/T114A/T259P): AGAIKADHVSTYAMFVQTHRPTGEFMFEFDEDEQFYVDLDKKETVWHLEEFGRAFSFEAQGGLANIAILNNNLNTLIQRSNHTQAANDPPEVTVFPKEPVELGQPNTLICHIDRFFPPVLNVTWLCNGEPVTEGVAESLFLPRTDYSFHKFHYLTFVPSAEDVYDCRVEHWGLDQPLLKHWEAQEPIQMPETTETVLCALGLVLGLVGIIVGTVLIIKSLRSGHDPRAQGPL
Assay: Competitive MHC class II binding assay, DPA10202-DPB10501
Conditions: positive binding at cutoff 1000 nM; read-out: HLA-DPA10202-DPB10501

pIC50: > 6.00
Sequence: LVGDNGVLASAIATHAKIRD [pep-110]
